PMC10786919, “Design-rules for stapled peptides with in vivo activity and their application to Mdm2/X antagonists” (Nature Communications, 2024)
pEC50: −log10 of the molar value. In brackets after ≈: the same amount, converted by molar mass. Where two headings read alike, the source gives them in different places. Positions of bridges follow the written chain, without caps; N, C: chain ends. Non-standard residues stand in square brackets, D forms with d. Residues, ends and D or L forms follow the SMILES beside them. Phe(3-CF3) = N[C@@H](Cc1cccc(C(F)(F)F)c1)C(=O)O; Lys(N3) = [N-]=[N+]=NCCCC[C@H](N)C(=O)O; R8 = C=CCCCCCC[C@@](C)(N)C(=O)O; Cba = N[C@@H](CC1CCC1)C(=O)O; S5 = C=CCCC[C@](C)(N)C(=O)O; βAla = NCCC(=O)O; Sar = CNCC(=O)O

How the values were obtained:
HCT116 cells = assay: Lactate dehydrogenase (LDH) release assay; assay type: cell-based
Summary of the method: (§1)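 LDH release, fluorometric membrane-integrity read-out; HCT116 with stable p53-responsive β-lactamase reporter; 8000 cells/well; 0.5% DMSO final; geometric mean, n≥3 biological replicates.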

[1] = Lactate dehydrogenase (LDH) release assay; assay type: cell-based
Summary of the method: as §1

[2] = Experimental LogD (partition coefficient); conditions: for logD: Partition Coeff LogD
in vitro = assay: in vitro
Summary of the method: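 Azido-peptide permeability was read as loss of NanoBRET signal (donor 450 nm, acceptor 610 nm) after adding NanoBret618-azide at 10 μM final.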

[3] = Solubility assay (kinetic solubility, PBS pH 7); assay type: physicochemical; conditions: pH 7, PBS; for solubility kinetic: pH 7, aqueous buffer, kinetic from dmso stock, read-out: Solubility
Summary of the method: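 Std: 10 mM stock → 100 µM in ACN/MeOH/DMSO (10:80:10). Sol. [µM] = (sample peak area / std peak area) × std conc.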

[4] = Nanoclick permeability assay EC50
[5] = 0% FBS 4Hr, read-out: LDH: Cytotoxicity assay: EC50
[6] = 10% FBS 4Hr, read-out: LDH: Cytotoxicity assay: EC50

SMILES | LDH: Cytotoxicity assay: % Effect (HCT116 cells) | pEC50 ([1]; LDH: Cytotoxicity assay: EC50) | EPSA (physchem) | logD ([2]; not stated) | cell entry EC50 (in vitro; [4]) | solubility kinetic [3] | LDH: Cytotoxicity assay: % Effect (HCT116 cells; 0% FBS 4Hr) | LDH: Cytotoxicity assay: % Effect (HCT116 cells; 10% FBS 4Hr) | pEC50 [1, 5] | pEC50 [1, 6] | cell entry EC50 (in vitro) | Solubility [3] | Partition Coeff LogD [2] | LDH: Cytotoxicity assay: % Effect (HCT116 cells; 10% FBS 16Hr) | pEC50 ([1]; 10% FBS 16Hr, read-out: LDH: Cytotoxicity assay: EC50) | logD ([2]; experimental)
CC(=O)N[C@@H](CCCCN=[N+]=[N-])C(=O)NCCC(=O)NCC(=O)N[C@H](C(=O)N[C@@H](Cc1ccccc1)C(=O)N[C@]1(C)CCCCCCC=CCCC[C@@](C)(C(=O)N[C@@H](CO)C(=O)N[C@@H](C)C(=O)N[C@@H](C)C(N)=O)NC(=O)[C@H](CC2CCC2)NC(=O)[C@H](CCC(N)=O)NC(=O)[C@H](C)NC(=O)[C@H](Cc2c[nH]c3ccccc23)NC(=O)[C@H](Cc2ccc(O)cc2)NC(=O)[C@H](CCC(=O)O)NC1=O)[C@@H](C)O [MP-261] (Ac-[Lys(N3)][βAla]GTF[R8]EYWAQ[Cba][S5]SAA-NH2; staple 6-13) | 8.826% | < 4.30 | 222 A^2 | 2.62 | 0.273 µM | 89 µM (≈ 170 µg/mL) |  |  |  |  |  |  |  |  |  | 
CC(=O)N[C@@H](CCCCN=[N+]=[N-])C(=O)NCCC(=O)N[C@@H](C)C(=O)N[C@H](C(=O)N[C@@H](Cc1ccccc1)C(=O)N[C@]1(C)CCCCCCC=CCCC[C@@](C)(C(=O)N[C@@H](CO)C(=O)N[C@@H](C)C(=O)N[C@@H](C)C(N)=O)NC(=O)[C@H](CC2CCC2)NC(=O)[C@H](C)NC(=O)[C@H](C)NC(=O)[C@H](Cc2c[nH]c3ccccc23)NC(=O)[C@H](Cc2ccc(O)cc2)NC(=O)[C@H](C)NC1=O)[C@@H](C)O [MP-209, AZIDE-ATSP-7041 (L1A, E5A, Q9A)] (Ac-[Lys(N3)][βAla]ATF[R8]AYWAA[Cba][S5]SAA-NH2; staple 6-13) |  |  | 197 A^2 | 3.32 |  | 2 µM (≈ 3.63 µg/mL) | -1.35% | 7.572% | < 4.30 | < 4.30 | 0.906 µM |  |  |  |  | 
CC(=O)N[C@@H](CCCCN=[N+]=[N-])C(=O)NCCC(=O)N[C@@H](CC(C)C)C(=O)N[C@H](C)C(=O)N[C@@H](Cc1ccccc1)C(=O)N[C@]1(C)CCCCCCC=CCCC[C@@](C)(C(=O)N[C@@H](CO)C(=O)N[C@@H](C)C(=O)N[C@@H](C)C(N)=O)NC(=O)[C@H](CC2CCC2)NC(=O)[C@H](CCC(N)=O)NC(=O)[C@H](C)NC(=O)[C@H](Cc2c[nH]c3ccccc23)NC(=O)[C@H](Cc2ccc(O)cc2)NC(=O)[C@H](CCC(=O)O)NC1=O [MP-7471] (Ac-[Lys(N3)][βAla]L[dA]F[R8]EYWAQ[Cba][S5]SAA-NH2; staple 6-13) | 0.465% | < 4.30 | 229 A^2 | 2.95 | > 10 µM | 93.5 µM (≈ 181 µg/mL) |  |  |  |  |  |  |  |  |  | 
CC(C)C[C@H](NC(=O)CCNC(=O)[C@@H](N)CCCCN=[N+]=[N-])C(=O)N[C@H](C(=O)N[C@@H](Cc1ccccc1)C(=O)N[C@]1(C)CCCCCCC=CCCC[C@@](C)(C(N)=O)NC(=O)[C@H](CC(C)C)NC(=O)[C@H](CC(C)C)NC(=O)[C@H](C)NC(=O)[C@H](Cc2c[nH]c3ccccc23)NC(=O)[C@H](Cc2ccc(O)cc2)NC(=O)[C@H](CCC(=O)O)NC1=O)[C@@H](C)O [MP-0176] (H-[Lys(N3)][βAla]LTF[R8]EYWALL[S5]-NH2; staple 6-13) | 6.97% | < 4.30 | 212 A^2 | 2.85 | 0.217 µM |  |  |  |  |  |  | Poorly Behaved |  |  |  | 
CC(=O)N[C@@H](CCCCN=[N+]=[N-])C(=O)NCCC(=O)N[C@@H](CC(C)C)C(=O)N[C@H](C(=O)N[C@@H](Cc1ccccc1)C(=O)N[C@]1(C)CCCCCCC=CCCC[C@@](C)(C(N)=O)NC(=O)[C@H](CC2CCC2)NC(=O)[C@H](CCC(N)=O)NC(=O)[C@H](C)NC(=O)[C@H](Cc2c[nH]c3ccccc23)NC(=O)[C@H](Cc2ccc(O)cc2)NC(=O)[C@H](CCC(=O)O)NC1=O)[C@@H](C)O [MP-326] (Ac-[Lys(N3)][βAla]LTF[R8]EYWAQ[Cba][S5]-NH2; staple 6-13) | 7.44% | 4.61 | 222 A^2 | 2.88 | 0.215 µM | 3 µM (≈ 5.22 µg/mL) |  |  |  |  |  |  |  |  |  | 
CC(=O)N[C@@H](CCCCN=[N+]=[N-])C(=O)NCCC(=O)N[C@@H](CC(C)C)C(=O)N[C@H](C(=O)N[C@@H](Cc1ccccc1)C(=O)N[C@]1(C)CCCCCCC=CCCC[C@@](C)(C(=O)N[C@@H](CO)C(=O)N[C@@H](C)C(=O)N[C@@H](C)C(N)=O)NC(=O)[C@H](CC2CCC2)NC(=O)[C@H](CCC(N)=O)NC(=O)[C@H](C)NC(=O)[C@H](Cc2cccc(C(F)(F)F)c2)NC(=O)[C@H](Cc2ccc(O)cc2)NC(=O)[C@H](CCC(=O)O)NC1=O)[C@@H](C)O [MP-030] (Ac-[Lys(N3)][βAla]LTF[R8]EY[Phe(3-CF3)]AQ[Cba][S5]SAA-NH2; staple 6-13) | 8.06% | < 4.30 | 192 A^2 |  | 0.408 µM |  |  |  |  |  |  | Poorly Behaved | Poorly Behaved |  |  | 
CC(=O)N[C@@H](CCCCN=[N+]=[N-])C(=O)NCCC(=O)N[C@@H](C)C(=O)N[C@H](C(=O)N[C@@H](Cc1ccccc1)C(=O)N[C@]1(C)CCCCCCC=CCCC[C@@](C)(C(=O)N[C@@H](C)C(=O)N[C@@H](C)C(=O)N[C@@H](C)C(N)=O)NC(=O)[C@H](CC2CCC2)NC(=O)[C@H](C)NC(=O)[C@H](C)NC(=O)[C@H](Cc2c[nH]c3ccccc23)NC(=O)[C@H](Cc2ccc(O)cc2)NC(=O)[C@H](C)NC1=O)[C@@H](C)O [MP-350, Azide-ATSP-7041 (L1A, E5A, Q9A, S12A)] (Ac-[Lys(N3)][βAla]ATF[R8]AYWAA[Cba][S5]AAA-NH2; staple 6-13) |  |  | 196 A^2 | 3.37 |  | 2 µM (≈ 3.59 µg/mL) | -5.38% | 108.5% | < 4.29 | < 4.30 | 0.695 µM |  |  | -2.204% | < 4.29 | 3.37
CC(C)C[C@H](NC(=O)CCNC(=O)[C@@H](N)CCCCN=[N+]=[N-])C(=O)N[C@H](C(=O)N[C@@H](Cc1ccccc1)C(=O)N[C@]1(C)CCCCCCC=CCCC[C@@](C)(C(N)=O)NC(=O)[C@H](CC2CCC2)NC(=O)[C@H](CCC(N)=O)NC(=O)[C@H](C)NC(=O)[C@H](Cc2c[nH]c3ccccc23)NC(=O)[C@H](Cc2ccc(O)cc2)NC(=O)[C@H](CCC(=O)O)NC1=O)[C@@H](C)O [MP-327] (H-[Lys(N3)][βAla]LTF[R8]EYWAQ[Cba][S5]-NH2; staple 6-13) | 39.84% | < 4.30 | 228 A^2 | 2.83 | > 10 µM |  |  |  |  |  |  |  |  |  |  | 
CC(=O)N[C@@H](CCCCN=[N+]=[N-])C(=O)NCCC(=O)N[C@@H](CC(C)C)C(=O)N[C@H](C(=O)N[C@@H](Cc1ccccc1)C(=O)N[C@]1(C)CCCCCCC=CCCC[C@@](C)(C(=O)N[C@@H](CO)C(=O)N[C@@H](C)C(=O)N[C@@H](C)C(N)=O)NC(=O)[C@H](CC2CCC2)NC(=O)[C@@H](C)NC(=O)[C@H](C)NC(=O)[C@H](Cc2c[nH]c3ccccc23)NC(=O)[C@H](Cc2ccc(O)cc2)NC(=O)[C@H](CCC(=O)O)NC1=O)[C@@H](C)O [MP-474] (Ac-[Lys(N3)][βAla]LTF[R8]EYWA[dA][Cba][S5]SAA-NH2; staple 6-13) |  | < 4.30 | 222 A^2 | 3.07 | 0.148 µM | 156 µM (≈ 298 µg/mL) |  |  |  |  |  |  |  |  |  | 
CC(=O)N[C@@H](CCCCN=[N+]=[N-])C(=O)NCCC(=O)N[C@@H](CC(C)C)C(=O)N[C@H](C(=O)N[C@@H](Cc1ccccc1)C(=O)N[C@]1(C)CCCCCCC=CCCC[C@@](C)(C(=O)N[C@@H](CO)C(=O)N[C@@H](C)C(=O)N[C@@H](C)C(N)=O)NC(=O)[C@H](CC2CCC2)NC(=O)[C@H](CCC(N)=O)NC(=O)[C@H](C)NC(=O)[C@H](Cc2c[nH]c3ccccc23)NC(=O)[C@H](Cc2ccc(O)cc2)NC(=O)CNC1=O)[C@@H](C)O [MP-210] (Ac-[Lys(N3)][βAla]LTF[R8]GYWAQ[Cba][S5]SAA-NH2; staple 6-13) |  | < 4.30 | 198 A^2 | 3.35 | 0.279 µM | 2 µM (≈ 3.8 µg/mL) |  |  |  |  |  |  |  |  |  | 
CC(=O)N[C@@H](CCCCN=[N+]=[N-])C(=O)NCCC(=O)N[C@H](C)C(=O)N[C@H](C(=O)N[C@@H](Cc1ccccc1)C(=O)N[C@]1(C)CCCCCCC=CCCC[C@@](C)(C(=O)N[C@@H](CO)C(=O)N[C@@H](C)C(=O)N[C@@H](C)C(N)=O)NC(=O)[C@H](CC2CCC2)NC(=O)[C@H](CCC(N)=O)NC(=O)[C@H](C)NC(=O)[C@H](Cc2c[nH]c3ccccc23)NC(=O)[C@H](Cc2ccc(O)cc2)NC(=O)[C@H](CCC(=O)O)NC1=O)[C@@H](C)O [MP-7470] |  | < 4.30 | 228 A^2 | 2.72 | > 10 µM | 90 µM (≈ 174 µg/mL) |  |  |  |  |  |  |  |  |  | 
CC(=O)N[C@@H](CCCCN=[N+]=[N-])C(=O)NCCC(=O)N[C@@H](CC(C)C)C(=O)N[C@H](C(=O)N[C@@H](Cc1ccccc1)C(=O)N[C@]1(C)CCCCCCC=CCCC[C@@](C)(C(=O)N[C@@H](CO)C(=O)N[C@@H](C)C(=O)N(C)CC(N)=O)NC(=O)[C@H](CC2CCC2)NC(=O)[C@H](CCC(N)=O)NC(=O)[C@H](C)NC(=O)[C@H](Cc2c[nH]c3ccccc23)NC(=O)[C@H](Cc2ccc(O)cc2)NC(=O)[C@H](CCC(=O)O)NC1=O)[C@@H](C)O [MP-566] (Ac-[Lys(N3)][βAla]LTF[R8]EYWAQ[Cba][S5]SA[Sar]-NH2; staple 6-13) |  | < 4.30 | 204 A^2 | 2.69 | 0.132 µM | 87.5 µM (≈ 172 µg/mL) |  |  |  |  |  |  |  |  |  | 
